≈ marks a conversion by molar mass, not a printed value.
Legend:
[1] = system: HSRE resistant strain (multiresistant clinical isolate); assay: MIC and MBC, classical method (liquid Shkolnikova medium, Lowenstein-Jensen medium); type: cell-based, Mycobacterium tuberculosis
[2] = system: XTB strain (extremly resistant clinical isolate); assay: as above; type: cell-based, Mycobacterium tuberculosis

`CN(Cc1ccccc1)c1nc(=O)c2cc(C(F)(F)F)cc([N+](=O)[O-])c2s1` [Compound 5, 2-[Benzyl(methyl)amino]-8-nitro-6-(trifluoromethyl)-4H-1,3-benzothiazin-4-one] showed an MBC ([1]; Mycobacterium tuberculosis) of 3.12 µg/mL (≈ 7.89 µM), an MIC ([1]; Mycobacterium tuberculosis) of 1.56 µg/mL (≈ 3.95 µM) and an MBC ([2]; Mycobacterium tuberculosis) of 3.12 µg/mL (≈ 7.89 µM). It also gave an MIC ([2]; Mycobacterium tuberculosis) of 1.56 µg/mL (≈ 3.95 µM).

In the case of `O=c1nc(NCc2ccccc2)sc2c([N+](=O)[O-])cc(C(F)(F)F)cc12` [Compound 8, 2-(Benzylamino)-8-nitro-6-(trifluoromethyl)-4H-1,3-benzothiazin-4-one], the MBC ([1]; Mycobacterium tuberculosis) was 1.56 µg/mL (≈ 4.09 µM), the MIC ([1]; Mycobacterium tuberculosis) was 0.78 µg/mL (≈ 2.05 µM) and the MBC ([2]; Mycobacterium tuberculosis) was 1.56 µg/mL (≈ 4.09 µM). For the same compound, the MIC ([2]; Mycobacterium tuberculosis) was 0.78 µg/mL (≈ 2.05 µM).

`NNC(=O)c1ccncc1` [Isoniazid (INH), Isoniazid, reference compound] was tested, and the MIC ([1]; HSRE resistant strain (multiresistant)) was “Not active” and the MIC ([2]; X TB strain (extremly resistant)) was “Not active”.

Work on `CN(Cc1ccccc1)c1nc(=O)c2cc(Cl)cc([N+](=O)[O-])c2s1` [Compound 10, 2-[Benzyl(methyl)amino]-6-chloro-8-nitro-4H-1,3-benzothiazin-4-one] yielded an MBC ([1]; Mycobacterium tuberculosis) of 1.56 µg/mL (≈ 4.31 µM), an MIC ([1]; Mycobacterium tuberculosis) of 1.56 µg/mL (≈ 4.31 µM) and an MBC ([2]; Mycobacterium tuberculosis) of 0.39 µg/mL (≈ 1.08 µM). For the same compound, the MIC ([2]; Mycobacterium tuberculosis) was less than 0.39 µg/mL.
